pIC50: −log10 of the molar value.
target: GDP-bound KRAS protein (aa 1-169), containing both G12C and C118A amino acid substitutions (Homo sapiens, UniProt P01116, C118A/G12C); experiment: Coupled nucleotide exchange assay (SOS-mediated, AlphaScreen); type: biochemical; conditions: 5 min compound pre-incubation

Compound	Coupled exchange IC50 (5 min)
C=CC(=O)N1CCN(c2nc(=O)n(-c3ccccc3C#N)c3nc(-c4c(O)cccc4F)c(Cl)cc23)[C@@H](C)C1 [Example 54-58, 2-(6-chloro-7-(2-fluoro-6-hydroxyphenyl)-4-((2S)-2-methyl-4-(2-propenoyl)-1-piperazinyl)-2-oxopyrido[2,3-d]pyrimidin-1(2H)-yl)benzonitrile]	3.44 | nda μM
C=CC(=O)N1CCN(c2nc(=O)n(-c3c(OC)ncnc3C(C)C)c3nc(-c4ccccc4F)c(Cl)cc23)[C@@H](C)C1 (single isomer, unassigned) [Example 54-107-1]	0.731 | nda μM
C=CC(=O)N1CCN(c2nc(CO)c(C(=O)N3[C@@H](C)CC[C@@H]3C)c3nc(-c4ccccc4F)c(Cl)cc23)CC1 [Example 149, 1-(4-(3-Chloro-8-(((2S,5S)-2,5-dimethyl-1-pyrrolidinyl)carbonyl)-2-(2-fluorophenyl)-7-(hydroxymethyl)-1,6-naphthyridin-5-yl)-1-piperazinyl)-2-propen-1-one]	20.6 | nda μM
C=CC(=O)N1CCN(c2nc(=O)n(-c3c(C)cccc3C(C)C)c3nc(-c4c(O)cccc4F)c(F)cc23)C(C)(C)C1 (single isomer, unassigned) [Example 63-4]	1.15 | nda μM
C=CC(=O)N1CCN(c2nc(=O)n(CC3CCN(C(=O)OC(C)(C)C)CC3)c3nc(Cl)c(Cl)cc23)[C@@H](C)C1 [Example 60-25, 2-methyl-2-propanyl 4-((6,7-dichloro-4-((2S)-2-methyl-4-(2-propenoyl)-1-piperazinyl)-2-oxopyrido[2,3-d]pyrimidin-1(2H)-yl)methyl)-1-piperidinecarboxylate]	25.5 | nda μM
C=CC(=O)N1CCN(c2nc(=O)n(-c3c(C)ccnc3C(C)C)c3nc(Cl)c(Cl)cc23)[C@@H](C)C1 (atropisomer, axis not shown; (M)) [Example 61-2-2, (M)-6,7-dichloro-1-(4-methyl-2-(2-propanyl)-3-pyridinyl)-4-((2S)-2-methyl-4-(2-propenoyl)-1-piperazinyl)pyrido[2,3-d]pyrimidin-2(1H)-one]	2.37 | nda μM
C=CC(=O)N1CCN(c2nc(=O)n(-c3ccccc3CC#N)c3nc(-c4c(O)cccc4F)c(Cl)cc23)[C@@H](C)C1 [Example 54-19, (2-(6-chloro-7-(2-fluoro-6-hydroxyphenyl)-4-((2S)-2-methyl-4-(2-propenoyl)-1-piperazinyl)-2-oxopyrido[2,3-d]pyrimidin-1(2H)-yl)phenyl) acetonitrile]	12.2 | nda μM
C=CC(=O)N1CCN(c2nc(=O)n(-c3c(CC)cccc3CC)c3nc(N4CCC(C)(C)CC4)c(Cl)cc23)[C@@H](C)C1 [Example 66-29, 6-chloro-1-(2,6-diethylphenyl)-7-(4,4-dimethyl-1-piperindinyl)-4-((2S)-2-methyl-4-(2-propenoyl)-1-piperazinyl)pyrido[2,3-d]pyrimidin-2(1H)-one]	25.3 | nda μM
C=CC(=O)N1CCN(c2nc(=O)n(-c3c(OC)cccc3OC)c3nc(-c4ccccc4F)c(Cl)cc23)[C@@H](C)C1 [Example 54-68, 6-chloro-1-(2,6-dimethoxy-phenyl)-7-(2-fluorophenyl)-4-((2S)-2-methyl-4-(2-propenoyl)-1-piperazinyl) pyrido[2,3-d]pyrimidin-2(1H)-one]	4.65 | nda μM
C=CC(=O)N1CCN(c2nc(=O)n(-c3nccnc3C(C)(C)C)c3nc(-c4c(O)cccc4F)c(Cl)cc23)[C@@H](C)C1 (single isomer, unassigned) [Example 55-23-1]	18.55 | nda μM
C=CC(=O)N1CCN(c2cc(=O)n(-c3ccccc3C(C)C)c3nc(-c4ccccc4F)ccc23)[C@@H](C)C1 [Example 127, 7-(2-fluorophenyl)-4-((2S)-2-methyl-4-(2-propenoyl)-1-piperazinyl)-1-(2-(2-propanyl)phenyl)-1,8-naphthyridin-2(1H)-one]	27.2 | nda μM
C=CC(=O)N1CCN(c2nc(=O)n(-c3c(C)ccnc3C(C)C)c3nc(-c4cc(N)ccc4Cl)c(F)cc23)[C@@H](C)C1 (single isomer, unassigned) [Example 58-8-2]	2.02 | nda μM
C=CC(=O)N1C[C@H]2C[C@@H](C1)N2c1nc(=O)n(-c2c(C)ccnc2C(C)C)c2nc(-c3ccccc3F)c(Cl)cc12 (single isomer, unassigned) [Example 78-17, (M)-6-chloro-7-(2-fluorophenyl)-1-(4-methyl-2-(2-propanyl)-3-pyridinyl)-4-(3-(2-propenoyl)-3,6-diazabicyclo[3.1.1]heptan-6-yl)pyrido[2,3-d]pyrimidin-2(1H)-one]	26 | nda μM
C=CC(=O)N1CCN(c2nc(=O)n(-c3c(C)cccc3C(C)C)c3nc(-c4nc(N)cc5ccccc45)c(F)cc23)[C@@H](C)C1 (single isomer, unassigned) [Example 71-2-2]	1.06 | nda μM
C=CC(=O)N1CCN(c2nc(C#N)c(-c3ccccc3C(C)C)c3nc(-c4ccccc4F)c(Cl)cc23)CC1 [Example 146, 3-Chloro-2-(2-fluorophenyl)-8-(2-(2-propanyl)phenyl)-5-(4-(2-propenoyl)-1-piperazinyl)-1,6-naphthyridine-7-carbonitrile]	38.7 | nda μM
C=CC(=O)N1CCN(c2nc(=O)n(-c3ccccc3C(C)C)c3nc(-c4ccccc4F)c(F)cc23)[C@@H](C)C1 (single isomer, unassigned) [Example 57-7-1]	8.89 | nda μM
C=CC(=O)N1CCN(c2nc(=O)n(-c3c(C)cccc3C(C)C)c3nc(-c4nc(N)cc5ccccc45)c(F)cc23)[C@@H](C)C1 [71-2, 7-(3-amino-1-isoquinolinyl)-6-fluoro-1-(2-methyl-6-(2-propanyl)phenyl)-4-((2S)-2-methyl-4-(2-propenoyl)-1-piperazinyl)pyrido[2,3-d]pyrimidin-2(1H)-one]	2.17 | nda μM
C=CC(=O)N1CCN(c2nc(=O)n(-c3c(CC)cccc3CC)c3nc(N4C[C@@H]5C[C@H]4CO5)c(Cl)cc23)[C@@H](C)C1 [Example 66-31, 6-chloro-1-(2,6-diethylphenyl)-4-((2S)-2-methyl-4-(2-propenoyl)-1-piperazinyl)-7-((1S,4S)-2-oxa-5-azabicyclo[2.2.1]heptan-5-yl)pyrido[2,3-d]pyrimidin-2(1H)-one]	84.25 | nda μM
C=CC(=O)N1CCN(c2nc(=O)n(-c3c(C)ncnc3C3CC3)c3nc(-c4ccccc4F)c(Cl)cc23)[C@@H](C)C1 (single isomer, unassigned) [Example 60-30-1]	1.26 | nda μM
C=CC(=O)N1CCN(c2nc(=O)n(-c3c(CC)cccc3CC)c3nc(N4CC[C@H](OC)C4)c(Cl)cc23)[C@@H](C)C1 [Example 66-22, 6-chloro-1-(2,6-diethylphenyl)-7-((3S)-3-methoxy-1-pyrrolidinyl)-4-((2S)-2-methyl-4-(2-propenoyl)-1-piperazinyl)pyrido[2,3-d]pyrimidin-2(1H)-one]	40.7 | nda μM
C=CC(=O)N1CCN(c2nc(=O)n(-c3c(C4CC4)ccnc3C)c3nc(-c4ccccc4F)c(F)cc23)[C@@H](C)C1 [Example 58-20, 1-(4-cyclopropyl-2-methyl-3-pyridinyl)-6-fluoro-7-(2-fluorophenyl)-4-((2S)-2-methyl-4-(2-propenoyl)-1-piperazinyl)pyrido[2,3-d]pyrimidin-2(1H)-one]	1.96 | nda μM
C=CC(=O)N1CCN(c2nc(=O)n(-c3c(C)cccc3C(C)(C)C)c3nc(-c4c(O)cccc4F)c(F)cc23)[C@@H](C)C1 (single isomer, unassigned) [Example 57-17-2]	3.9 | nda μM
C=CC(=O)N1CCN(c2nc(=O)n(-c3c(C(C)C)ccnc3C)c3nc(-c4ccccc4F)c(F)cc23)[C@@H](C)C1 (single isomer, unassigned) [Example 58-16-1]	11.6 | nda μM

same assay, conditions: 2 h compound pre-incubation

Compound	Coupled exchange IC50 (2 h)
C=CC(=O)N1CCN(c2nc(=O)n(CC3(C(F)(F)F)CC3)c3nc(Cl)c(Cl)cc23)CC1 [Example 60-2, 6,7-dichloro-4-(4-(2-propenoyl)-1-piperazinyl)-1-((1-(trifluoromethyl)cyclopropyl)methyl)pyrido[2,3-d]pyrimidin-2(1H)-one]	nda | 7.62 μM
C=CC(=O)N1CCN(c2nc(=O)n(-c3c(CC)cccc3CC)c3nc(Oc4cccc(F)c4)c(Cl)cc23)[C@@H](C)C1 [Example 54-64, 6-chloro-1-(2,6-diethylphenyl)-7-(3-fluorophenoxy)-4-((2S)-2-methyl-4-(2-propenoyl)-1-piperazinyl) pyrido[2,3-d]pyrimidin-2(1H)-one]	nda | 7.97 μM

same assay, conditions: read-out: Coupled exchange IC50 (5 min); 5 min compound pre-incubation

Compound	pIC50
Mixture of (M)-6-chloro-7-((2R)-2-methyl-1-piperidinyl)-4-((2S)-2-methyl-4-(2-propenoyl)-1-piperazinyl)-1-(2-(2-propanyl)phenyl)pyrido[2,3-d]pyrimidin-2(1H)-one and (M)-6-chloro-7-((2S)-2-methyl-1-piperidinyl)-4-((2S)-2-methyl-4-(2-propenoyl)-1-piperazinyl)-1-(2-(2-propanyl)phenyl)pyrido[2,3-d]pyrimidin-2(1H)-one [Example 115]	5.53
C=CC(=O)N1CCN(c2nc(=O)n(-c3ccccc3C(C)C)c3nc(-c4ccc[nH]c4=O)c(Cl)cc23)[C@@H](C)C1 [Example 97, 6-Chloro-4-((2S)-2-methyl-4-(2-propenoyl)-1-piperazinyl)-7-(2-oxo-1,2-dihydro-3-pyridinyl)-1-(2-(2-propanyl)phenyl)pyrido[2,3-d]pyrimidin-(1H)-one]	4.41

Source: patent publication US11090304B2 (Amgen Inc., priority 2018, dated 2021)
